Results published in PubChem BioAssay AID328 (DTP/NCI, 2004).
Where “and” joins values, the source holds several entries; their conditions need not be identical. Identical values can stand only once. Toxic doses and inconclusive results are not listed.

Tested on: BDF1 mice, P388 leukemia ip, median survival T/C
Experiment: NCI In Vivo Anticancer Drug Screen. Data for tumor model P388 Leukemia (intraperitoneal) in B6D2F1 (BDF1) mice
Conditions: endpoint: median survival time, higher = longer survival
Method in brief: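 Vehicle-dosed animals serve as the reference; survival of compound-dosed, tumour-implanted mice is divided by it.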

[1] = dose: 100.0 mg/kg/injection, schedule: Q04DX003 (ip), vehicle: saline with Tween-80
[2] = dose: 50.0 mg/kg/injection, schedule: Q01DX009 (ip), vehicle: saline with Tween-80
[3] = dose: 100.0 mg/kg/injection, schedule: Q01DX009 (ip), vehicle: saline with Tween-80
[4] = dose: 200.0 mg/kg/injection, schedule: Q01DX009 (ip), vehicle: saline with Tween-80
[5] = dose: 50.0 mg/kg/injection, schedule: Q01DX005 (ip), vehicle: saline with Tween-80
[6] = dose: 100.0 mg/kg/injection, schedule: Q01DX005 (ip), vehicle: saline with Tween-80
[7] = dose: 200.0 mg/kg/injection, schedule: Q01DX005 (ip), vehicle: saline with Tween-80
[8] = dose: 100.0 mg/kg/injection, schedule: Q01DX009 (ip), vehicle: Klucel (hydroxypropylcellulose) (HPC)
[9] = dose: 200.0 mg/kg/injection, schedule: Q01DX009 (ip), vehicle: Klucel (hydroxypropylcellulose) (HPC)
[10] = dose: 12.5 mg/kg/injection, schedule: Q01DX009 (ip), vehicle: saline with Tween-80
[11] = dose: 25.0 mg/kg/injection, schedule: Q01DX009 (ip), vehicle: saline with Tween-80
[12] = dose: 200.0 mg/kg/injection, schedule: Q04DX003 (ip), vehicle: saline with Tween-80
[13] = dose: 400.0 mg/kg/injection, schedule: Q04DX003 (ip), vehicle: saline with Tween-80
[14] = dose: 400.0 mg/kg/injection, schedule: Q01DX009 (ip), vehicle: saline with Tween-80
[15] = dose: 100.0 mg/kg/injection, schedule: Q04DX003 (ip), vehicle: Klucel (hydroxypropylcellulose) (HPC)
[16] = dose: 200.0 mg/kg/injection, schedule: Q04DX003 (ip), vehicle: Klucel (hydroxypropylcellulose) (HPC)
[17] = dose: 400.0 mg/kg/injection, schedule: Q04DX003 (ip), vehicle: Klucel (hydroxypropylcellulose) (HPC)
[18] = dose: 100.0 mg/kg/injection, schedule: Q01DX001 (ip), vehicle: saline with Tween-80
[19] = dose: 200.0 mg/kg/injection, schedule: Q01DX001 (ip), vehicle: saline with Tween-80

## COC(CCC#N)c1ccc(C)cc1 (configuration not stated)
dose: 25.0 mg/kg/injection, schedule: Q04DX003 (sc), vehicle: olive oil, sesame oil, peanut oil
  T/C: 100 % of control
dose: 50.0 mg/kg/injection, schedule: Q04DX003 (sc), vehicle: olive oil, sesame oil, peanut oil
  T/C: 95 % of control
dose: 100.0 mg/kg/injection, schedule: Q04DX003 (sc), vehicle: olive oil, sesame oil, peanut oil
  T/C: 100 % of control

## Nc1nc2c(ncn2C2OC(CO)C(O)C2O)c(=O)[nH]1 (configuration not stated)
[1]
  T/C: 157 % of control

## N#CSCc1ccc(OCc2ccccc2)cc1
[2]
  T/C: 100 % of control
[3]
  T/C: 103 % of control
[4]
  T/C: 112 % of control

## CCOC(=O)C1=C(N)n2c(s/c(=C/c3ccc(N(C)C)cc3)c2=O)=C(C(=O)OCC)C1c1ccc(N(C)C)cc1 (configuration not stated)
[5]
  T/C: 101 % of control
[6]
  T/C: 97 % of control
[7]
  T/C: 99 % of control

## CCCCCCC/C=N/N=C/CCCCCCC
dose: 100.0 mg/kg/injection, schedule: Q01DX009 (ip), vehicle: other
  T/C: 100 % of control
dose: 100.0 mg/kg/injection, schedule: Q04DX003 (ip), vehicle: other
  T/C: 109 % of control
dose: 178.0 mg/kg/injection, schedule: Q01DX009 (ip), vehicle: other
  T/C: 122 % of control
dose: 200.0 mg/kg/injection, schedule: Q04DX003 (ip), vehicle: other
  T/C: 109 % of control
dose: 400.0 mg/kg/injection, schedule: Q01DX009 (ip), vehicle: other
  T/C: 104 % of control

## CC[As](=O)(O)CC
dose: 50.0 mg/kg/injection, schedule: Q01DX009 (ip), vehicle: saline
  T/C: 103 % of control
dose: 50.0 mg/kg/injection, schedule: Q04DX003 (ip), vehicle: saline
  T/C: 100 % of control
dose: 100.0 mg/kg/injection, schedule: Q01DX009 (ip), vehicle: saline
  T/C: 100 % of control and 108 % of control
dose: 132.0 mg/kg/injection, schedule: Q01DX009 (ip), vehicle: saline
  T/C: 95 % of control
dose: 200.0 mg/kg/injection, schedule: Q04DX003 (ip), vehicle: saline
  T/C: 108 % of control

## CC[C@H](CC[C@@H](C)[C@H]1CC[C@H]2[C@@H]3CC=C4C[C@@H](OC(=O)CSC(CC(=O)O)C(=O)O)CC[C@]4(C)[C@H]3CC[C@]12C)C(C)C (some centres not stated)
[8]
  T/C: 109 % of control
[9]
  T/C: 104 % of control

## CCCCN(CCCC)CC(O)c1cc(Cl)cc2c1-c1ccc(Cl)cc1C2 (configuration not stated)
[2]
  T/C: 105 % of control
[3]
  T/C: 114 % of control
[4]
  T/C: 98 % of control

## CCNc1cc(Cl)nc(N)n1
[10]
  T/C: 95 % of control
[11]
  T/C: 104 % of control
[2]
  T/C: 104 % of control
[1]
  T/C: 108 % of control
[12]
  T/C: 95 % of control
[13]
  T/C: 112 % of control

## CCOC(=O)c1c(N)sc2c1CCN(Cc1ccccc1)C2
[3]
  T/C: 104 % of control
[1]
  T/C: 100 % of control
[4]
  T/C: 95 % of control
[12]
  T/C: 104 % of control
[14]
  T/C: 119 % of control
[13]
  T/C: 109 % of control

## C[C@H]1[C@H](O)[C@H]2[C@@H](CCC3=CC(=O)CC[C@@]32C)[C@@H]2CC[C@H](O)[C@@]12C
[3]
  T/C: 100 % of control
[1]
  T/C: 91 % of control
[4]
  T/C: 87 % of control and 100 % of control
[12]
  T/C: 95 % of control
[14]
  T/C: 87 % of control and 118 % of control
[13]
  T/C: 91 % of control

## O=[N+]([O-])c1ccc(S(=O)(=O)N/N=C\c2ccc(Cl)c(Cl)c2)cc1
[10]
  T/C: 95 % of control
[11]
  T/C: 92 % of control
[2]
  T/C: 100 % of control

## Cc1ccc(S(=O)(=O)NC(=O)C2C(=O)CC3(CCCCC3)CC2=O)cc1
dose: 50.0 mg/kg/injection, schedule: Q01DX009 (ip), vehicle: Klucel (hydroxypropylcellulose) (HPC)
  T/C: 109 % of control
[8]
  T/C: 118 % of control

## CC1OC(OC2CCCc3c(O)c4c(c(O)c32)C(=O)c2ccccc2C4=O)CC(N)C1O (configuration not stated)
dose: 0.25 mg/kg/injection, schedule: Q01DX009 (ip), vehicle: water
  T/C: 110 % of control
dose: 0.5 mg/kg/injection, schedule: Q01DX009 (ip), vehicle: water
  T/C: 105 % of control
dose: 1.0 mg/kg/injection, schedule: Q01DX009 (ip), vehicle: water
  T/C: 98 % of control
dose: 2.0 mg/kg/injection, schedule: Q01DX009 (ip), vehicle: water
  T/C: 110 % of control and 115 % of control
dose: 4.0 mg/kg/injection, schedule: Q01DX009 (ip), vehicle: water
  T/C: 108 % of control and 113 % of control
dose: 8.0 mg/kg/injection, schedule: Q01DX009 (ip), vehicle: water
  T/C: 108 % of control
dose: 16.0 mg/kg/injection, schedule: Q01DX009 (ip), vehicle: water
  T/C: 105 % of control

## CCOC(=O)C(=CN1CCCCC1)C(=O)OCC
[1]
  T/C: 95 % of control
[12]
  T/C: 100 % of control
[13]
  T/C: 100 % of control

## c1ccc(/C(=N\Nc2nc3ccccc3s2)c2ccncc2)cc1
[8]
  T/C: 104 % of control
[15]
  T/C: 100 % of control
[9]
  T/C: 95 % of control
[16]
  T/C: 105 % of control
dose: 400.0 mg/kg/injection, schedule: Q01DX009 (ip), vehicle: Klucel (hydroxypropylcellulose) (HPC)
  T/C: 100 % of control
[17]
  T/C: 105 % of control

## Cc1c[n+]([O-])cc(C)c1[N+](=O)[O-]
[11]
  T/C: 100 % of control
[2]
  T/C: 90 % of control
[3]
  T/C: 90 % of control
[4]
  T/C: 100 % of control
[14]
  T/C: 100 % of control

## O=C(C[n+]1ccc2ccccc2c1)c1ccccc1
dose: 12.5 mg/kg/injection, schedule: Q04DX003 (ip), vehicle: saline with Tween-80
  T/C: 100 % of control
dose: 25.0 mg/kg/injection, schedule: Q04DX003 (ip), vehicle: saline with Tween-80
  T/C: 100 % of control
dose: 50.0 mg/kg/injection, schedule: Q04DX003 (ip), vehicle: saline with Tween-80
  T/C: 100 % of control

## CC(C)(C)OC(=O)NC(CC(Cc1ccccc1)C(N)=O)C(=O)N1CCCC1C(=O)OCc1ccccc1 (configuration not stated)
[5]
  T/C: 102 % of control
[6]
  T/C: 95 % of control
[7]
  T/C: 98 % of control

## O=C(CN1CCCCC1)Nc1ccc(Br)cc1
[2]
  T/C: 96 % of control
[3]
  T/C: 104 % of control
[4]
  T/C: 112 % of control

## CCCCCCCCCCCCCCCCOc1ccc(CC)cc1
dose: 50.0 mg/kg/injection, schedule: Q01DX001 (ip), vehicle: saline with Tween-80
  T/C: 95 % of control
[18]
  T/C: 90 % of control
[19]
  T/C: 100 % of control

## O=C1C2CCC(C2)[CH]1[Hg][Cl] (configuration not stated)
dose: 1.56 mg/kg/injection, schedule: Q01DX009 (ip), vehicle: saline with Tween-80
  T/C: 102 % of control
dose: 3.13 mg/kg/injection, schedule: Q01DX009 (ip), vehicle: saline with Tween-80
  T/C: 103 % of control
dose: 6.25 mg/kg/injection, schedule: Q01DX009 (ip), vehicle: saline with Tween-80
  T/C: 118 % of control

## CC(C(Nc1ccc(C(=O)O)cc1)C(F)(F)C(F)(F)C(F)(F)F)[N+](=O)[O-] (configuration not stated)
[18]
  T/C: 95 % of control
[19]
  T/C: 104 % of control
dose: 400.0 mg/kg/injection, schedule: Q01DX001 (ip), vehicle: saline with Tween-80
  T/C: 100 % of control

## C#C[C@]1(O)CC[C@H]2[C@@H]3CCc4cc(O)ccc4[C@H]3CC[C@@]21C
[8]
  T/C: 95 % of control
[15]
  T/C: 104 % of control
[9]
  T/C: 87 % of control
[16]
  T/C: 104 % of control
[17]
  T/C: 95 % of control

## NC(=O)NN=C1CCCCC1
dose: 17.5 mg/kg/injection, schedule: Q01DX009 (ip), vehicle: Klucel (hydroxypropylcellulose) (HPC)
  T/C: 90 % of control
dose: 26.25 mg/kg/injection, schedule: Q04DX003 (ip), vehicle: Klucel (hydroxypropylcellulose) (HPC)
  T/C: 100 % of control
dose: 35.0 mg/kg/injection, schedule: Q01DX009 (ip), vehicle: Klucel (hydroxypropylcellulose) (HPC)
  T/C: 122 % of control
dose: 52.5 mg/kg/injection, schedule: Q04DX003 (ip), vehicle: Klucel (hydroxypropylcellulose) (HPC)
  T/C: 100 % of control

## O=C1C=CC(=O)N1c1ccc(Br)cc1Cl
dose: 1.0 mg/kg/injection, schedule: Q04DX003 (ip), vehicle: saline
  T/C: 155 % of control
dose: 2.0 mg/kg/injection, schedule: Q04DX003 (ip), vehicle: saline
  T/C: 122 % of control

## Cc1ccc(NC(=O)c2ccccc2C(=O)O)c(C)c1
[1]
  T/C: 100 % of control
[12]
  T/C: 100 % of control
[13]
  T/C: 118 % of control

## NC(=O)CC(NC(=O)OCc1ccccc1)c1nn[nH]n1 (configuration not stated)
[3]
  T/C: 90 % of control
[4]
  T/C: 100 % of control
[14]
  T/C: 95 % of control

## COC(=O)c1cc(=O)nc(N/N=C/c2ccc3c(c2)OCO3)s1
[5]
  T/C: 92 % of control
[7]
  T/C: 96 % of control

## CC1CCCC/C1=N/NC(=O)c1ccccc1 (configuration not stated)
[2]
  T/C: 87 % of control
[3]
  T/C: 91 % of control
[1]
  T/C: 95 % of control

## CCCCCC#CC(=O)O
[2]
  T/C: 99 % of control
[3]
  T/C: 100 % of control
[4]
  T/C: 90 % of control
